# Patent US7635709B2, “Compositions and methods for bowel care in individuals with chronic intestinal pseudo-obstruction” (priority 2002, dated 2009)
# Columns and labels:
# [1] = system: persons with SCI; experiment: Bowel evacuation score by video fluoroscopy after rectal barium-oatmeal paste in thirteen SCI subjects (Example 3); assay type: in vivo, human; conditions: IV bolus 2 mg neostigmine, with or without 0.4 mg glycopyrrolate, 13 SCI subjects
# Description: (§1) Thirteen (13) persons with SCI (5 quadriplegics, 8 paraplegics) with a mean age of 46 years (range 25-69) and mean duration of injury of 16 years (range 1-31) were treated. None of the subjects had known heart disease and/or history of arrhythmias.
# (§2) On separate days, subjects were given by IV bolus either (i) 2 mg neostigmine alone, (ii) a combination of 2 mg neostigmine and 0.4 mg glycopyrrolate, or (iii) normal saline. Subjects were blinded to the type of infusion being delivered. The effect of these infusions on bowel evacuation was assessed semi-quantitatively on a scale of 0 (no evacuation) to 4+ (complete evacuation) using video fluoroscopy after rectal instillation of a barium-oatmeal paste having a consistency similar to that of stool. Blood pressure, heart rate and other vital signs were monitored in each subject. In addition, airway resistances were determined in each subject using the forced oscillation technique (as described, for example, in Goldman, Pulm. Pharmacol. Ther., 14(5):341-350, 2001). Total airway resistance was determined using 5 Hz forced oscillations, and central airway resistance was determined using 20 Hz forced oscillations.
# This response received a 0 (zero) bowel evacuation score. FIGS. 1B-1E show progressively increasing bowel evacuation responses in different subjects. The responses in FIGS. 1B-1E correspond to bowel evacuation scores of 1+, 2+, 3+, and 4+, respectively.
# [2] = system: persons with SCI; experiment: Heart rate, blood pressure and side effects monitoring in thirteen SCI subjects (Example 3); assay type: in vivo, human; conditions: IV bolus 2 mg neostigmine, with or without 0.4 mg glycopyrrolate, 13 SCI subjects
# Description: as §1, §2
# [3] = system: persons with SCI; experiment: Airway resistance by forced oscillation technique in thirteen SCI subjects (Example 3); assay type: in vivo, human; conditions: IV bolus 2 mg neostigmine
# Description: as §2
# [4] = system: patients with acute colonic pseudo-obstruction; conditions: Ponec et al. 1999; cited from earlier work
smiles,measurement,setting,value
CN(C)C(=O)Oc1cccc([N+](C)(C)C)c1 [neostigmine],subjects with prompt and complete evacuation,[1],57 % of subjects
same,"time of evacuation post infusion, mean",[1],11 min
same,mean bowel evacuation score,[1]; scale 0 (no evacuation) to 4+ (complete evacuation),about 2.29
same,change in blood pressure after administration,[2],No change
same,"other side effects (muscle twitching, sweating, vague abdominal sensations, salivation)",[2],transient and minimal
same,mean lowest heart rate measured,[2]; p=0.02 between groups,about 49 BMP
same,"total airway resistance, increase over baseline",[3]; 5 Hz forced oscillations,approximately 25.5%
same,"central airway resistance, increase over baseline",[3]; 20 Hz forced oscillations,approximately 18.4%
same,passage of flatus or stool with reduction in abdominal distention,[4],most patients successfully passed flatus or stool
